Ends that are not written are not given here. Peptide text beside a SMILES is read from it.

For test [1], the target named is T1, S100A6 (Oryctolagus cuniculus, UniProt P30801). The class given is binding, rabbit. The conditions noted are these: 25 °C, pH 7.0, 10 mM Ca^2+; for heat of binding in ITC: no affinity could be measured.
Test [2] concerns the target T1, S100A6. In words: NMR titration / chemical shift perturbation, SIP. The test is classed as binding, rabbit. To be noted: 30 °C.
In test [3] the test system is S100A6. To be noted: cited from earlier work.
The next test concerns SCF-TBL1 E3 ligase. To be noted: SGS domain mutant of SIP; cited from earlier work.

“SIP L196A: full length SIP construct, substitution of Leu196 for Ala”: in the test with S100A6 [1], the “heat of binding in ITC” value is on record as “did not produce detectable heat changes”.

In the case of `CC[C@H](C)[C@H](NC(=O)[C@H](CCCCN)NC(=O)[C@H](CCCCN)NC(=O)[C@H](CC(C)C)NC(=O)[C@@H](NC(=O)[C@H](CC(N)=O)NC(=O)[C@H](CCSC)NC(=O)[C@H](CC(C)C)NC(=O)CNC(=O)[C@H](CCC(=O)O)NC(=O)[C@H](CO)NC(=O)[C@H](CO)NC(=O)CNC(=O)[C@@H]1CCCN1C(=O)CN)C(C)C)C(=O)N[C@@H](Cc1ccc(O)cc1)C(=O)N[C@@H](CCC(=O)O)C(=O)N[C@@H](CC(=O)O)C(=O)NCC(=O)N[C@@H](CC(=O)O)C(=O)N[C@@H](CC(=O)O)C(=O)N[C@@H](CC(=O)O)C(=O)N[C@@H](CCSC)C(=O)N[C@@H](CCCCN)C(=O)N[C@@H](CCCNC(=N)N)C(=O)N[C@H](C(=O)N[C@H](C(=O)N[C@@H](CC(N)=O)C(=O)N[C@@H](CCCCN)C(=O)N[C@@H](C)C(=O)N[C@@H](Cc1c[nH]c2ccccc12)C(=O)N[C@H](C(=O)N[C@@H](CCC(=O)O)C(=O)N[C@@H](CO)C(=O)N[C@@H](CCCNC(=N)N)C(=O)O)C(C)C)[C@@H](C)CC)[C@@H](C)O` [SIP(189–219)] (H-GPGSSEGLMNVLKKIYEDGDDDMKRTINKAWVESR-OH), the “exchange regime of the interaction (NMR titration)” value on S100A6 [2] (15N-1H HSQC, pH 6.5, 10 mM Ca^2+) was “intermediate-fast exchange regime”. Also, the “binding stoichiometry by NMR” value on S100A6 [2] (15N-labeled S100A6 0.1 mM, 50 mM Tris pH 6.5, 10 mM Ca^2+) was “two SIP molecules are symmetrically bound to the S100A6 dimer”. On to `CC[C@H](C)[C@H](NC(=O)[C@H](CCCCN)NC(=O)[C@H](CCCCN)NC(=O)[C@H](CC(C)C)NC(=O)[C@@H](NC(=O)[C@H](CC(N)=O)NC(=O)[C@H](CCSC)NC(=O)[C@H](CC(C)C)NC(=O)CNC(=O)[C@H](CCC(=O)O)NC(=O)[C@H](CO)NC(=O)[C@H](CO)NC(=O)CNC(=O)[C@@H]1CCCN1C(=O)CN)C(C)C)C(=O)N[C@@H](Cc1ccc(O)cc1)C(=O)N[C@@H](CCC(=O)O)C(=O)N[C@@H](CC(=O)O)C(=O)NCC(=O)O` [SIP(189–203)] (H-GPGSSEGLMNVLKKIYEDG-OH), for which the “reduction of S100A6 binding affinity” value on S100A6 [1] (ITC, SIP fragment vs SIP(189–219)) was found to be 4 fold.

Consider “isolated SGS domain fragment: intrinsically disordered SGS (Sgt1 specific) domain (E178-F229) (EKPSYDTEADPSEGLMNVLKKIYEDGDDDMKRTINKAWVESREKQAREDTEF; left off: His-tag, N-terminal, cleaved)”, for which the “S100A6 binding affinity, in words” value in the test with S100A6 [1] (ITC, compared with full-length SIP / SIP-SGS) is given as “very similar S100A6 binding affinities”. For the same molecule, the “Ca^2+ dependence of S100A6 binding” value with S100A6 [3] is “strictly Ca^2+ dependent”. As for “SIP(203–219): SIP fragment for second putative helix (GDDDMKRTINKAWVESR; not fully specified)”, the “heat of binding in ITC” value with S100A6 [1] was “did not produce any observable heat of binding”. Regarding E217K: SGS domain mutant of SIP, in the test with SCF-TBL1 E3 ligase, the “function of the E3 ligase, in words” value is reported as “disrupt the function of the E3 ligase”.

The record behind these values is publication PMC2666074 (Biochemistry, 2008).
